Source: patent US8304452B2, “Radical scavenger and active oxygen eliminating agent” (InBiotex Inc., priority 2005, dated 2012)

Columns and labels:
[1] = tested on: galactosemic cataract model; experiment: Galactosemic cataract model, eye drops (Example 4); type: in vivo, Crj:CD(SD) IGS rats; parameters: key to Pathological findings of lens: Cataract / Pathological findings of lens: Vacuolation of lens epithelium / Pathological findings of lens: Alignment irregularity of lens cortical fiber / Pathological findings of lens: Vacuole structure in outer cortex: −: no change; ±: very slight change; +: slight change; 2+: medium change; 3+: significant change; details: for severity of cataract (Cotlier standard score): four times per day, n=10, mean±standard deviation; for Pathological findings of lens: Alignment irregularity of lens cortical fiber / Pathological findings of lens: Cataract / Pathological findings of lens: Vacuolation of lens epithelium / Pathological findings of lens: Vacuole structure in outer cortex: eye balls resected 28 days later; for cases with severe sugar cataract: until day 28 of eye dropping
Method: 352 mg of a test substance was weighed and then dissolved in 1.1 mL of 1N NaOH (1 mol/L sodium hydroxide; manufactured by Wako Pure Chemical, Co., Ltd.). After dissolution, it was verified with a pH paper (Duotest under trade name; MACHEREY-NAGEL) that the pH was within an acceptable range (5 to 8). Subsequently, the resulting solution was divided in each volume of 0.03 mL into 30 2-ml tubes (28 such tubes for four tests per day for 7 days+2 such tubes for spare). These were immediately frozen in liquid nitrogen, and stored under freezing (preset at −85° C. within an acceptable range of −90 to −75° C.)/dark conditions. The solutions under storage were defined as stock solution at 320 mg/mL. The stock solutions could be used within 8 days after the preparation. The stock solutions outside the 8-day period after the preparation were disposed. Before eye dropping, the following preparation was done. After the tubes of the stock solution at 320 mg/mL were back to ambient temperature, 0.93 mL of physiological saline was directly added to the tubes for dilution. After preparative dilution, it was verified with a pH paper that the pH of the diluted solutions were within an acceptable range (5 to 8). The resulting eye drop was defined as 1.0% eye drop for use in administration. 0.09 mL of the 1.0% eye drop was divided in a 2-mL tube, to which 0.81 mL of physiological saline was directly added for dilution. Subsequently, it was verified with a pH paper that the pH of the diluted solution was within an acceptable range (5 to 8). The resulting eye drop was defined as 0.1% eye drop, for use in administration. Herein, eye drops of pH outside the acceptable range were never used. The 1.0% eye drop and the 0.1% eye drop practically used for administration were at pH 5.2 to 8.0 and pH 6.2 to 7.4, respectively. As the medium, physiological saline as the control substance was used as it was. Male Crj:CD(SD) IGS rats (SPF) of age 3 weeks were subjected to a 5-day quarantine period and then to an 8-day acclimatization period. By the random extraction method, the rats were grouped in 3 groups, where each group consisted of 10 rats, in a manner such that the average body weight and deviation in each group might be almost equal. After grouping, the rats were fed ad libitum with a powdery feed containing galactose at 50% [a powder feed (Lot No. 050107) of a mixture at equal amounts of CRF-1 powder feed (Lot No. 041104; manufacturer: Oriental Yeast Co., Ltd.) and galactose (D-galactose, Lot No. QYG0223, manufacturer: Yoneyama Pharmaceutical Industry, Co. Ltd.); the mixture was prepared by Oriental Yeast Co., Ltd.; abbreviated as {galactose feed}] hereinafter], as placed in a powder feeder. Additionally, the rats were fed ad libitum with drinking water. The three groups were defined as (A) medium control group, (B) 0.1% 5-S-GAD eye drop group, and (C) 1.0% 5-S-GAD eye drop group for dosing. The administration route was eye dropping as a clinically prospective route. The number of eye dropping per day was four times, while the interval between eye droppings was about 2 hours. The eye dropping was done around 9:30 am (9:00 am to 10:00 am as the defined time period), around 11:30 (11:00 am to 12:00 am as the defined time period), around 13:30 (13:00 pm to 14:00 pm as the defined time period) and around 15:30 pm (15:00 pm to 16:00 pm as the defined time period). Eye dropping was done over 28 days. On day 1, day 7, day 14, day 21 and day 28, ophthalmologic examinations were done about 30 minutes after each last eye dropping. The observation method is as follows. Right eye with eye drop application and left eye without any treatment were observed of their lenses, using a slit lamp (SL-15, Kowa Company, Ltd.). The severity of cataract was evaluated, according to the Cotlier standard (see FIG. 1 in Arch Ophthalmol., (67) 476-82, 1962, which was entitled ‘Development of galactose cataract in the rat, showing biomicroscopic front and slit view’). […]

[2] = DPPH-scavenging activity versus TEMPOL (Example 5); type: biochemical; details: 60 μM DPPH, 1 to 1000 μM test substance, 5 minutes; FIG. 5
Method: 5-S-GAD or TEMPOL was added to an ethanol solution of 60 μM DPPH to a final concentration of 1 to 1000 μM, for reaction at ambient temperature for 5 minutes. Subsequently, the concentration of the DPPH radical was measured via the absorbance at 517 nm. The DPPH radical concentration in a reaction solution to which PBS(−) instead of the test substance was added, was used as a control. In the same manner as in Example 2, the scavenging ratio (%) of the DPPH radical was calculated and defined as the radical-scavenging activity (see FIG. 5).

[3] = DPPH-scavenging action (Example 2); type: biochemical; details: for Radical-scavenging ratio (%): DPPH, ambient temperature, 5 minutes, mean, n=2
Method: DPPH (1,1-diphenyl-2-picrylhydrazyl) is one of nitrogen radicals and is a very stable radical, which is commercially available as a black-purple crystal (Wako Pure Chemical, Co., Ltd., etc.). N-β-Alanyl-5-S-glutathionyl-3,4-dihydroxyphenylalanine (5-S-GAD) (see Table 2) or Carnosine (under trade name) (see Table 3) was added to an ethanol solution of […] DPPH radical, for reaction at ambient temperature for 5 minutes (see the following reaction scheme). Instead of the test reagent, distilled water was added to the ethanol solution, which was used as a background. The DPPH absorbance at 517 nm was assayed, to calculate the scavenging ratio (%) of the DPPH radical according to the following equation. The scavenging ratio was defined as radical scavenger activity (mean, n=2; see Table 2, Table 3 and FIG. 2).
Radical-scavenging ratio (%)=[assay value of background (mean)−assay value of solution at each concentration]/background assay value (mean)]×100

NCCC(=O)N[C@@H](Cc1cc(O)c(O)c(SC[C@H](NC(=O)CC[C@H](N)C(=O)O)C(=O)NCC(=O)O)c1)C(=O)O [5-S-GAD, N-β-alanyl-5-S-glutathionyl-3,4-dihydroxyphenylalanine]
abnormality of general states ([1]; 0.1% and 1.0% eye drop groups, before eye dropping and about one hour after the last eye dropping during the eye dropping period): no abnormality of their general states was observed | severity of cataract (Cotlier standard score) ([1]; 0.1% eye drop, on day 1): 0 ± 0 | severity of cataract (Cotlier standard score) ([1]; 0.1% eye drop, on day 7): 1.9 ± 0.1 | severity of cataract (Cotlier standard score) ([1]; 0.1% eye drop, on day 14): 2.5 ± 0.1 | severity of cataract (Cotlier standard score) ([1]; 0.1% eye drop, on day 21): 3.6 ± 0.1 | severity of cataract (Cotlier standard score) ([1]; 0.1% eye drop, on day 28): 3.9 ± 0.1 | Pathological findings of lens: Alignment irregularity of lens cortical fiber ([1]; 0.1% eye drop): + | Pathological findings of lens: Cataract ([1]; 0.1% eye drop): 2+ | Pathological findings of lens: Vacuolation of lens epithelium ([1]; 0.1% eye drop): ± | Pathological findings of lens: Vacuole structure in outer cortex ([1]; 0.1% eye drop): ± | cases with severe sugar cataract ([1]; 0.1% eye drop): no case with severe sugar cataract occurred until day 28 | severity of cataract (Cotlier standard score) ([1]; 1.0% eye drop, on day 1): 0 ± 0 | severity of cataract (Cotlier standard score) ([1]; 1.0% eye drop, on day 7): 1.8 ± 0.1 | severity of cataract (Cotlier standard score) ([1]; 1.0% eye drop, on day 14): 2.4 ± 0.1 | severity of cataract (Cotlier standard score) ([1]; 1.0% eye drop, on day 21): 3.4 ± 0.1 | severity of cataract (Cotlier standard score) ([1]; 1.0% eye drop, on day 28): 3.8 ± 0.1 | Pathological findings of lens: Alignment irregularity of lens cortical fiber ([1]; 1.0% eye drop): + | Pathological findings of lens: Cataract ([1]; 1.0% eye drop): 2+ | Pathological findings of lens: Vacuolation of lens epithelium ([1]; 1.0% eye drop): − | Pathological findings of lens: Vacuole structure in outer cortex ([1]; 1.0% eye drop): ± | cases with severe sugar cataract ([1]; 1.0% eye drop): No case with severe sugar cataract emerged until day 28 | pathological effect in the galactosemic rat cataract model (in words) ([1]; pathological findings, day 28): apparent ameliorating effect pathologically | DPPH radical-scavenging action compared with TEMPOL (in words) [2]: excellent DPPH radical-scavenging action compared with TEMPOL | Radical-scavenging ratio (%) ([3]; 1 μM added): 3.918% | Radical-scavenging ratio (%) ([3]; 3 μM added): 13.891% | Radical-scavenging ratio (%) ([3]; 10 μM added): 73.762% | Radical-scavenging ratio (%) ([3]; 30 μM added): 93.487% | action for scavenging the DPPH radical (in words) ([3]; summary of Table 2, Table 3 and FIG. 2): strong actions for scavenging the DPPH radical
